From ChEMBL document CHEMBL1201862, “PubChem BioAssay data set” (2004)
Activity calls are given as the source filed them.

Experiments:
[1] = biological target: T1, Sentrin-specific protease 1 (Homo sapiens, UniProt Q9P0U3); assay: Dose response confirmation of small molecule inhibitors of the catalytic domain of the SUMO protease, SENP1 in a FRET assay.; assay type: functional; conditions: read-out: IC50_Mean
T1 sequence (Q9P0U3 whole entry): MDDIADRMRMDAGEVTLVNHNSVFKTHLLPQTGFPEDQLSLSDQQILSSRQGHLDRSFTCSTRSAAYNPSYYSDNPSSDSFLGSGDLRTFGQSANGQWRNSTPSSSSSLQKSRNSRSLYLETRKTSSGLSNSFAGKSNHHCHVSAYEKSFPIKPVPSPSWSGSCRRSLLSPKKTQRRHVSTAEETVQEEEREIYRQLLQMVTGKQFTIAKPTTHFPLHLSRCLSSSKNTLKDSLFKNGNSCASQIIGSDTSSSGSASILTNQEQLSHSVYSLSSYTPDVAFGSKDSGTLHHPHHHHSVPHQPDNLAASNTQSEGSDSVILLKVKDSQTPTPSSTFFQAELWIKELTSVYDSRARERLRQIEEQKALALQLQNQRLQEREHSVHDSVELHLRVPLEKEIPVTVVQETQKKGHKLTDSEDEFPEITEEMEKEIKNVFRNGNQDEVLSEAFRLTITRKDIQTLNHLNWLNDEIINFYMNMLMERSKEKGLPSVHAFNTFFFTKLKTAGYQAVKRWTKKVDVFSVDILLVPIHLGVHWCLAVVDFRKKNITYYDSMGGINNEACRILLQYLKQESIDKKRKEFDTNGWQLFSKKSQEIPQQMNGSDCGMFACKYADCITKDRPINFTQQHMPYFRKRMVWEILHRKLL

[2] = biological target: T1, Sentrin-specific protease 1; assay: SENP1 catalytic domain blockers, concentration series – biochemical, kinetic FRET, dose response (AID 651697); assay type: functional; conditions: read-out: IC50_Mean
Beta-galactosidase = Beta-galactosidase (Escherichia coli, UniProt Q8VNN2); assay: Dose response counterscreen for EBI2 assay utilizing the enzyme, b-galactosidase.; assay type: functional
[3] = blockers of HIV-1 ZM109 envelope-driven cell-cell fusion – HeLa effector, CEM target cells, luciferase, cherry-pick, dose response (AID 652058); assay type: functional, cell-based;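 note: luciferase signal from HIV-1 Env mediated cell-cell fusion of effector and target cells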
[4] = HIV-1 AD8 envelope cell-cell fusion blockers – cherry-pick, dose response (AID 652062); assay type: functional, cell-based;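 note: luciferase signal from cell-cell fusion driven by HIV-1 clade B AD8 Env; potency is for inhibitors of fusion seen as a drop in luminescence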
[5] = intracellular Trypanosoma cruzi inhibitors in host cells – cell-based, plate reader, cherry-pick samples, set 3, dose response (AID 651818); assay type: functional;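 note: compounds incubated with infected cells for about four days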
[6] = anti-trypanosomal activity in BESM host cells – imaging, CA-I/72 strain, bovine embryo skeletal muscle, dry powder, dose response (AID 651885); assay type: functional, cell-based
[7] = blockers of HIV-1 envelope-mediated cell-cell fusion – cherry-pick, dose response (AID 652057); assay type: functional, cell-based
[8] = T. cruzi growth inhibition in host cells, dose response, cell-based, plate reader, dry powder, set 2 (AID 652275); assay type: functional
[9] = biological target: Long-chain-fatty-acid--AMP ligase FadD28 (Mycobacterium tuberculosis, UniProt P9WQ59); assay: Fluorescence polarization aasay to screen for inhibitors that compete for the binding of FadD28 to a bisubstrate Measured in Biochemical System Using Plate Reader - 2147-01_Inhibitor_Dose_CherryPick_Activity.; assay type: functional, Mycobacterium tuberculosis H37Rv
[10] = biological target: Fructose-bisphosphate aldolase (Mycobacterium tuberculosis, UniProt P9WQA3); assay: Fluorescence-based biochemical high throughput dose response assay for inhibitors of the fructose-bisphosphate aldolase (FBA) of M. tuberculosis.; assay type: functional
Major prion protein = Major prion protein (Homo sapiens, UniProt P04156); assay type: functional, cell-based
[11] = biological target: Photoreceptor-specific nuclear receptor (Homo sapiens, UniProt Q9Y5X4); assay type: functional;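 note: potency for compounds that break the NR2E3 corepressor complex and count as activators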
[12] = biological target: Peroxisome proliferator-activated receptor gamma/Nuclear receptor corepressor 2 (Homo sapiens, UniProt P37231+Q9Y618); assay type: functional

Nc1nc(N)c2sc3nc(C(F)(F)F)cc(C(F)(F)F)c3c2n1
IC50 [1]: 16.7 µM (active) | IC50 [2]: 30 µM (inactive)

COc1ccc(-c2ccc(-c3nc4ccc(C)cn4c3NC3CCCCC3)cc2OC)cc1
IC50 (Beta-galactosidase): 77.5 µM (inactive)

CC(C)C1Cc2ccccc2-c2nc(S)nc(O)c21 (centres undefined)
IC50 (cells): > 138 µM (inactive)

C[C@@H]1CN([C@@H](C)CO)C(=O)c2cccc(NC(=O)c3ccncc3)c2O[C@H]1CN(C)CC1CCCCC1
AC50 [3]: 953 nM (active) | AC50 [4]: 1.96 µM (active) | AC50 [5]: 636 nM (active) | IC50 [6]: 740 nM (active) | AC50 [7]: 400 nM (active) | AC50 [8]: 182 nM (active)

Cn1c(=O)c2cc(NC(=S)NC3CCCCC3)ccc2n1C/C=C/c1ccccc1
AC50 [9]: > 100 µM (inactive)

Cc1cccc(C)c1NC(=S)Nc1ccccc1C(=O)NCc1ccco1
IC50 [10]: 6.61 µM (active)

Cc1ccc(-n2nc3c(SCCN4CCOCC4)nnc(C)c3c2C)cc1
IC50 (Major prion protein): 12.8 µM (inactive) | IC50 (cells): > 138 µM (inactive)

CC(C)C1Cc2ccccc2-c2[nH]c(=S)[nH]c(=O)c21 (centres undefined)
IC50 (Major prion protein): 4.87 µM (active) | IC50 [11]: > 39.8 µM (not active) | IC50 [12]: 4.66 µM (active)

CC(=O)Nc1cc(-c2ccc(N3CCN(C)CC3)cc2)cn2c(-c3ccccc3)cnc12
IC50 [1]: 12.2 µM (active) | IC50 [2]: 24.1 µM (inactive)
